Results from patent publication US7544700B2, “Pharmaceutically active sulfonamide derivatives bearing both lipophilic and ionisable moieties as inhibitors of protein JunKinases” (Laboratoires Serono SA, priority 2000, dated 2009).

How the values were obtained:
GST-JNK2 = GST-JNK2 (Homo sapiens, UniProt P45984); test: JNK2 in vitro assay (33P incorporation into c-jun, SPA); format: biochemical
Procedure: (§1) The phosphorylation of c-jun by JNK2 or JNK3 may be followed by monitoring the incorporation of ^33P into c-jun following the protocol below. The inhibitory activity of the compounds according to formula I, in respect of c-jun phosphorylation through JNK, is determined by calculating the phosphorylation activity of a JNK in the presence or absence of the test compounds according to formula I.
(§2) JNK3 and/or -2 assays are performed in 96 well NM plates: incubation of 0.5 μg of recombinant, pre-activated GST-JNK3 or GST-JNK2 with 1 μg of recombinant, biotinylated GST-c-Jun and 2 μM ^33γ-ATP (2 nCi/μl), in the presence or absence of compounds according to formula I and in a reaction volume of 50 μl containing 50 mM Tris-HCl, pH 8.0; 10 mM MgCl2; 1 mM Dithiothreitol, and 100 μM NaVO4. The incubation is performed for 120 min. at R.T and stopped upon addition of 200 μl of a solution containing 250 μg of Streptavidine-coated SPA beads (Amersham, Inc.)*, 5 mM EDTA, 0.1% Triton X-100 and 50 μM ATP, in phosphate saline buffer. After incubation for 60 minutes at RT, beads are sedimented by centrifugation at 1500×g for 5 minutes, resuspended in 200 μl of PBS containing 5 mM EDTA, 0.1% Triton X-100 and 50 μM ATP and the radioactivity measured in a scintillation β counter, following sedimentation of the beads as described above. By replacing biotinylated GST-c Jun with biotinylated GST-1ATF2 or biotinylated myelin basic protein, this assay may also be used to measure inhibition of pre-activated p38 and ERK MAP Kinases, respectively.

GST-JNK3 = GST-JNK3 (Homo sapiens, UniProt P53779); test: JNK3 in vitro assay (33P incorporation into c-jun, SPA); format: biochemical
Procedure: as §1, §2

[1] = tested on: Hela luciferase reporter-c-Jun (HLR-c-Jun) cell lines; test: C-Jun reporter assay; format: cell-based; details: Homo sapiens, MEKK-1 transfected HLR-c-Jun cells
Description: The phosphorylation of the transcriptional factor, c-jun, by JNK in the MAP kinase signal transduction pathway can be followed via a trans-reporting system such as the commercially available PathDetect® (32).
A trans-reporting system allows one to follow, via Luciferase activity, the activation status of a fusion trans-activator protein. The trans-activator protein consists of the activation domain of the transcriptional factor of interest (c-jun) fused with a yeast transcriptional activator, GAL4 DNA binding domain (dbd). The GAL4 dbd has the advantage that no known mammalian transcriptional factors can bind to it and therefore the background noise of the assay is very low.
In the present case, Hela luciferase reporter-c-Jun (HLR-c-Jun) cell lines which constitutively express GAL4-cJun were used.
The MEKK-1 gene was inserted. MEKK-1 is a MAPKKK which triggers the activation of JNK. Expression of wild type MEKK-1 is sufficient for JNK activation (33).
Once, JNK is activated it can induce the phosphorylation of the c-jun domain of the fusion trans-activator protein (GAL4dbd-cJun) which forms a dimer. The dimer is then is able to bind to a GAL4 upstream activating sequence (GAL4 UAS) of the reporter which activates Luciferase expression.
Luciferase expression is detected by luminescence using a simple assay such as Dual-Luciferase® Reporter Assay System (34) in which Renilla is used as a “control reporter”.
Inhibition of JNK is observed as a decrease in Luciferase expression and detected by a decrease in luminescence.
HLR-c-Jun cells are cultured in DMEM High Glc supplemented with 10% FCS (Sigma), 2 mM Glutamine (Gibco), P/S, Hygromycin b 100 μg/mL and G418 250 μg/mL.
The cell suspensions are diluted with medium to give about 3.5×10^6 cells/mL and […] of cell suspension are put onto 2 10 cm culture dishes containing 9 mL of culture medium.
Transfections • Control: 0.2 μg pTK Renilla, 5.8 μg pBluescript KS, 500 μl OPTIMEM (GOBCO), 18 μl Fugene 6. • Induced: 0.1 μg pMEKK1, 0.2 μg pTK Renilla, 5.7 μg pBluescript KS, 500 μl OPTIEM (GIBCO), 18 μl Fugene 6 30′ RT.
The transfection mixture is added to the plated cells. The plates are incubated over night at 37° C. in a humidified atmosphere of 5% CO2 in air.
A 96 wells plate (100 μl of culture medium per well) is prepared. Negative control (vehicle): 2 μl of DMSO is added to the 100 μl (in triplicate). […]
The medium is removed from the plate and the cells are washed two times with 100 μl PBS. […] The luminometer reading is recorded.
−50 μl of Luciferase Assay Reagent II are injected and readings are recorded at 5 and 10 minutes.
50 μl of Stop & Glo® Reagent are injected and readings are recorded at 5 and 10 minutes.
The relative luminescence is then measured: RLU Luciferase/RLU Renilla.

[2] = tested on: IL-2 release by (PMA+Ionomycin)-stimulated Jurkat cells; test: IL-2 release assay (IL-2 ELISA); format: cell-based; details: Homo sapiens; PMA + Ionomycine stimulated Jurkat cells
Procedure: The Ability of the Compounds According to Formula I to Modulate the Inflammatory Response by Inhibiting the Release of IL-2 was Assessed Using the Following Protocol
JNK pathway activation triggers the production of inflammatory cytokines such as IL-2. JNK can be activated by external stimuli such as PMA and Ionomycine and IL-2 production can be measured via an IL-2 ELISA test. Comparative measurements with and without the compounds of the invention according to the following protocol measure the ability of the compounds to prevent to stress-mediated IL-2 release.
Jurkat cells, a human T cell leukemia cell line (American Type Culture Collection # TIB 152) were cultured in RPMI 1640 medium (Gibco, BRL) supplemented with 10% of […] fetal calf serum (FCS), Glutamine and Penstrep. The cell suspension in the medium is diluted to give 2.10^6 cells/mL. The cells were plated (2.10^5 cells/well) on a 96-well plate containing different concentrations of a compound according to formula I (final concentration of compounds, 10, 3, 1, 0.3, 0.1 μM). This mixture is incubated 30 minutes at 37° C. in a humidified CO2 atmosphere. Cells were then treated with 10 μl PMA (Phorbolmyristate-13 Acetate-12)+Ionomycine (0.1 μM and 1 μM final concentration) in all wells except negative control. In wells without compounds, 10 μl of RPMI 2% DMSO (=0.1% final) is added. Cells are incubated 24 hours at 37° C. and then the supernatant harvested (freeze at −20° C. if not used the same day) prior to performing IL-2 ELISA test on the supernatant.
IL-2 release into the medium by (PMA+Iononomycin)-stimulated Jurkat cells, in presence or absence of test compounds may be assayed by ELISA. Following the procedure described below.
Monoclonal anti-human IL-2 antibody (MAB602) (capture), biotinylated anti-human IL-2 antibody (BAF202) (detection) and recombinant human IL-2 (202-IL-010) (standard) from From R&D Systems are used. […]
• 1. […] Optical density is measured using a microtiter plate reader set to 450 nm with correction at 570 nm.

JNK1 = JNK1 (Homo sapiens, UniProt P45983); test: JNK1 inhibition; format: biochemical; details: read-out: inhibition (IC50) with regard to JNK1
Solubility in water = format: physicochemical; details: pH 7.4, aqueous buffer, pH of 7.4 at room temperature
Procedure: The compounds have been assessed in respect of their solubility in water, at a pH of 7.4 at room temperature. In general the solubility of compounds of formula (I) is in a range of at least 50 μg/mL solvent, more preferably of at least 100 μg/mL solvent. For instance compounds (63), (163), (198) display a solubility in water of at least 200 μg/mL solvent.

Chain of GST-JNK3 (P53779 whole entry): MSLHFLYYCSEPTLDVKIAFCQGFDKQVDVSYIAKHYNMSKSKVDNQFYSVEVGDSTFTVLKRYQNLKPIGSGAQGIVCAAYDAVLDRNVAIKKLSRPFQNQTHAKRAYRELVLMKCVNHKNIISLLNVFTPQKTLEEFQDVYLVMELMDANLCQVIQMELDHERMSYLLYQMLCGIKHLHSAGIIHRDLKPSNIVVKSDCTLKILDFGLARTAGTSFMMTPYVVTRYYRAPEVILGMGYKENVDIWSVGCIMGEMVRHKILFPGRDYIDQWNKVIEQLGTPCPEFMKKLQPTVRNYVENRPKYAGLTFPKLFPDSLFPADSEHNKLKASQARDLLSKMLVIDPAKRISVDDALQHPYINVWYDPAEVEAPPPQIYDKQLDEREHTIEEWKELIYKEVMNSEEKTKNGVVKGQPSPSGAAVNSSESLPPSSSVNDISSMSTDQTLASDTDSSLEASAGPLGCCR
Chain of GST-JNK2 (P45984 whole entry): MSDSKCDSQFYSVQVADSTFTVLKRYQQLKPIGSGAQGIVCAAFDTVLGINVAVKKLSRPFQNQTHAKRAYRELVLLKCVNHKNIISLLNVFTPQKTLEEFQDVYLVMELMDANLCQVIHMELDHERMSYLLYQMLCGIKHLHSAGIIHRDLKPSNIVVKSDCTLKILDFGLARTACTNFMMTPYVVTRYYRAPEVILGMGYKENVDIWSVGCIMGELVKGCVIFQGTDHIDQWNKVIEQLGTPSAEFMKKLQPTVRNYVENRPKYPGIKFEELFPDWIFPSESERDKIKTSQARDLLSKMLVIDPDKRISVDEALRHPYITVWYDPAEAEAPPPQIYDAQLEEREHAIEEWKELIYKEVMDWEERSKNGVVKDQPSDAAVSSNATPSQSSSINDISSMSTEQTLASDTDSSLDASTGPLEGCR
Chain of JNK1 (P45983 whole entry, species assumed): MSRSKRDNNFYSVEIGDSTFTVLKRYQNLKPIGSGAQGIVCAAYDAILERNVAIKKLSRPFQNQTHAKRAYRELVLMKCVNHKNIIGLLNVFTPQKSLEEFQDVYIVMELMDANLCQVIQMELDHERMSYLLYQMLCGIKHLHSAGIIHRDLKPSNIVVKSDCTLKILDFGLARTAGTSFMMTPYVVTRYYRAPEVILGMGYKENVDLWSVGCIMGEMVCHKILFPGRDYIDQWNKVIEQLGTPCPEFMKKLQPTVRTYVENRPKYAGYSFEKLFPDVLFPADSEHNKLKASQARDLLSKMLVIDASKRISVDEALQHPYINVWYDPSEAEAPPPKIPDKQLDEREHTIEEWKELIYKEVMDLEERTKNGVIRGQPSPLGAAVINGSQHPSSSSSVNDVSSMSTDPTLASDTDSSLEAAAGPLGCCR

| Structure (SMILES) | IC50 (GST-JNK2) | IC50 (GST-JNK3) | further results |
| --- | --- | --- | --- |
| CCCCCCN(CC1CCCCC1)C1CCN(S(=O)(=O)c2ccc(CNC(=O)c3ccc(Cl)cc3)s2)CC1 [Example 155, 4-chloro-N-{[5-({4-[(cyclohexylmethyl)(hexyl)-amino]piperidin-1-yl}sulfonyl)thien-2-yl]methyl}-benzamide] | < 600 nM | < 600 nM | – |
| COc1cccc(C(=O)NCc2ccc(S(=O)(=O)N3CCC(NCCCN4CCOCC4)C3)s2)c1 (stereo not drawn) [Example 176, 3-methoxy-N-{[5-({3-[(3-morpholin-4-ylpropyl)amino]pyrrolidin-1-yl}sulfonyl)thien-2-yl]methyl}benzamide] | < 600 nM | < 600 nM | – |
| O=C(NCc1ccc(S(=O)(=O)N2CCC(NCc3ccc(S(=O)(=O)C(F)(F)F)cc3)CC2)s1)c1ccc(Cl)cc1 [Example 117, 4-chloro-N-[(5-{[4-({4-[(trifluoromethyl)sulfonyl]benzyl}amino)-1-piperidinyl]sulfonyl}-2-thienyl)methyl]benzamide] | – | – | IC50 [1]: < 700 nM |
| CCCOc1ccc(CNC2CCN(S(=O)(=O)c3ccc(CNC(=O)c4cccc(OC)c4)s3)CC2)cc1 [Example 11, 3-methoxy-N-{[5-({4-[(4-propoxybenzyl)amino]piperidin-1-yl}sulfonyl)thien-2-yl]methyl}benzamide] | – | – | IC50 [1]: < 700 nM |
| CCCCCNCC1CCN(S(=O)(=O)c2ccc(CNC(=O)c3cccc(OC)c3)s2)CC1 [Example 195, 3-methoxy-N-{[5-({4-[(pentylamino)methyl]piperidin-1-yl}sulfonyl)-thien-2-yl]methyl}benzamide] | < 600 nM | < 600 nM | – |
| COc1cccc(C(=O)NCc2ccc(S(=O)(=O)N3CCC(NCc4ccc(S(=O)(=O)C(F)(F)F)cc4)CC3)s2)c1 [Example 64, 3-methoxy-N-[(5-{[4-({4-[(trifluoromethyl)sulfonyl]benzyl}-amino)piperidin-1-yl]sulfonyl}thien-2-yl)methyl]benzamide] | – | – | IC50 [2]: < 800 nM |
| CCCCCCCCCCNC1CCN(S(=O)(=O)c2ccc(CNC(=O)c3cccc(OC)c3)s2)CC1 [Example 86, 3-methoxy-N-[(5-{[4-(decylamino)piperidin-1-yl]sulfonyl}thien-2-yl)methyl]benzamide] | – | – | IC50 (JNK1): 100 to 700 nM |
| COc1cccc(C(=O)NCc2ccc(S(=O)(=O)N3CCC(NCc4c(C)c(C)c(C)c(C)c4C)CC3)s2)c1 [Example 10, 3-methoxy-N-{[5-({4-[(2,3,4,5,6-pentamethylbenzyl)amino]piperidin-1-yl}sulfonyl)thien-2-yl]methyl}benzamide] | – | – | IC50 [1]: < 700 nM |
| COc1cccc(C(=O)NCc2ccc(S(=O)(=O)N3CCCC(NCCC4CCCCC4)CC3)s2)c1 (stereo not drawn) [Example 132, N-{[5-({4-[(2-cyclohexylethyl)amino]azepan-1-yl}sulfonyl)thien-2-yl]methyl}-3-methoxy-benzamide] | – | < 600 nM | – |
| CCCCCCN(C)C1CCN(S(=O)(=O)c2ccc(CNC(=O)c3ccc(Cl)cc3)s2)CC1 [Example 163, 4-chloro-N-{[5-({4-[hexyl(methyl)amino]piperidin-1-yl}sulfonyl)thien-2-yl]methyl}benzamide] | – | – | solubility (Solubility in water): ≥ 200 µg/mL |
| O=C(NCc1ccc(S(=O)(=O)N2CCC(NCCC3CCCCC3)CC2)s1)c1ccc(Cl)cc1 [Example 70, 4-chloro-N-{[5-({4-[(2-cyclohexylethyl)amino]piperidin-1-yl}sulfonyl)thien-2-yl]methyl}benzamide] | < 600 nM | < 600 nM | – |
